# Measurements taken from US6844333B1, “Method of treating atherosclerosis” (The Trustees of the University of Pennsylvania, priority 1999, dated 2005).
# Experiments:
# [1] = Quantitative serum lipid analysis (cholesterol, triglyceride) in cholesterol-fed rabbits; type: in vivo, Male New Zealand White rabbits; settings: change relative to control group; estriol 1 mg/kg; haloperidol 1/10/5 mg/kg s.c. daily
# Source text: (§1) Serum lipid levels and I/M were expressed as the mean+SEM for all animals. The changes in lipid levels before and after the treatment period were compared using paired t-tests. The differences between the treatment groups and controls were compared using analysis of variance (ANOVA) techniques. Repeated Measures ANOVA was used to compare the difference in plaque loads among the five groups. Multiple regression models were used to compare the differences in plaque loads between the four treatment groups and the control group, adjusting for the difference in cholesterol and triglyceride levels. P<0.05 was considered statistically significant.
# [2] = tested on: aortic atherosclerotic plaque in hypercholesterolemic rabbits; experiment: Histomorphometric analysis of aortic plaque load (I/M); type: in vivo, Male New Zealand White rabbits; settings: for aortic plaque load vs controls after controlling for changes in serum C and T levels (multiple regression): estriol 1 mg/kg (P=0.052), haloperidol 1/10/5 mg/kg (P=0.069); for (I/M)/(I/M)CG: relative to control group, estriol 1 mg/kg, haloperidol 1/10/5 mg/kg s.c. daily
# Procedure: Five-micron, serial histologic sections (15 each) of 27 ascending aortas were cut from paraffin blocks, stained with hematoxylin and eosin (H&E) and were studied by light microscopy. Images of tissue sections were captured to a Power Macintosh 7300/200 computer by a Hitachi 3-CCD Color Camera (model HV-C20) attached to a Nikon Eclipse E600 microscope. With digital imaging (IPLap Spectrum, Signal Analytics Corporation, Vienna, Va.), they were then analyzed by manual color segmentation by tracting the endothelial surface (intima), internal elastic lamina, and external elastic lamina of each vessel. From segmented images, intimal and medial areas were computed, allowing calculation of intima to media ratios. Plaque load for each aorta was defined as the ratio of intimal area to medial area (I/M).
# as §1
# [3] = tested on: aortic atherosclerosis in hypercholesterolemic rabbits; experiment: Gross examination of the aortas (occlusion); type: in vivo, Male New Zealand White rabbits; settings: treated animals vs control
# Source text: With the control animals, there was about 42% occlusion. With the low dose progesterone there was 6% occlusion and with the high dose progesterone there was 0% occlusion evident.
# [4] = Tolerability / survival during 12-week treatment; settings: E: after 18 days; H: at 39 and 71 days, failure to thrive; n=6 per group
# Procedure: (§2) Male New Zealand White rabbits (3.2-4.9 pounds each) were fed a 0.5% cholesterol chow diet for 12 weeks and randomly assigned to five groups (n=6 each); one control group (CG) and four groups treated with estriol (E), haloperidol (H), low-dose 17-hydroxyprogesterone (LDP), or high-dose 17-hydroxyprogesterone (HDP). Serum cholesterol (C) and triglyceride (T) were measured before and after the treatment period in all groups; serum progesterone was determined only in the LDP and HDP groups. After the treatment period, rabbits were euthanized for histomorphometric analysis of aortic plaque load. The rabbits were treated according to the Animal Welfare Act specifications.
# (§3) Vehicle only (CG) and vehicle plus steroid (treated groups) were administered daily subcutaneously. Steroid doses were as follows: estriol, 1 mg/kg; haloperidol, 1 mg/kg for 2 weeks, 10 mg/kg for 2 weeks, and 5 mg/kg for 8 weeks; low-dose 17-hydroxyprogesterone, 10 mg/kg; high-dose 17-hydroxyprogesterone, 90 mg/kg.
# (§4) After 91-100 days of treatment, twenty-seven rabbits were euthanized for histomorphometric analysis of aortic plaque load.
# human monocytes = experiment: Inhibition of human monocyte/macrophage Fcγ receptor mediated phagocytosis; type: cell-based; settings: 90 min at 37° C.; for % Phagocytic Cells (percent of monocytes/macrophages phagocytosing IgG sensitized cells): buffer control 42%; for PI (phagocytic index, ingested IgG-sensitized cells per 100 monocytes): buffer control 105
# Procedure: The agents to be tested (haloperidol, SCH-23390 and sulpiride) were incubated with human monocytes isolated using lymphocyte separation medium. Incubation was for 90 min at 37° C. Buffer (PBS) treated cells served as a control. At the end of the incubation period, monocytes were exposed to IgG-sensitized cells in accordance with the phagocytic assay of Indik et al, Blood 86:4389 (1995).
# [5] = rabbit, in vivo
# Procedure: as §2, §3, §4
Structure (SMILES),Cholesterol Δ/ΔCG [1],Triglyceride Δ/ΔCG [1],aortic plaque load vs controls after controlling for changes in serum C and T levels (multiple regression) [2],(I/M)/(I/M)CG [2],atherosclerosis on gross examination of the aortas (in words) [3],rabbits that died or were sacrificed during treatment [4],% Phagocytic Cells (percent of monocytes/macrophages phagocytosing IgG sensitized cells) (human monocytes; 50 μM PBS/methanol) [%],"PI (phagocytic index, ingested IgG-sensitized cells per 100 monocytes) (human monocytes; 50 μM PBS/methanol)",tolerance of dose by rabbits [5],% Phagocytic Cells (percent of monocytes/macrophages phagocytosing IgG sensitized cells) (human monocytes; 500 μg/ml PBS/methanol) [%],"PI (phagocytic index, ingested IgG-sensitized cells per 100 monocytes) (human monocytes; 500 μg/ml PBS/methanol)"
"C[C@]12CC[C@@H]3c4ccc(O)cc4CC[C@H]3[C@@H]1C[C@@H](O)[C@@H]2O [E, estriol]",0.71,−0.03,lower,0.02,decreased atherosclerosis,One rabbit in the E group died,–,–,–,–,–
"O=C(CCCN1CCC(O)(c2ccc(Cl)cc2)CC1)c1ccc(F)cc1 [Haloperidol, haloperidol]",0.86,0.81,lower,0.29,–,two rabbits in he H group were sacrificed,0,0,poor tolerance,–,–
CN1CCc2cc(Cl)c(O)cc2[C@@H](c2ccccc2)C1 [SCH-23390],–,–,–,–,–,–,16,38,–,–,–
"CCN1CCCC1CNC(=O)c1cc(S(N)(=O)=O)ccc1OC (stereo not drawn) [Sulpiride, sulpiride]",–,–,–,–,–,–,–,–,–,59,232
